Test results reported in patent publication US5262537A, “Derivatives of 4,5,6,7-tetrahydroimidazo-[4,5-c]pyridinyl-6-carboxylic acid” (priority 1993, dated 1993).
Counter-ions that a name gives are not always drawn. Like-named read-outs stand apart in the source and are kept apart here.

Experiments:
5-HT3 = biological target: T1, 5-HT3 (Rattus norvegicus, UniProt P35563); assay: biochemical; type: binding, Male Sprague-Dawley rats
T1 sequence (P35563 24-483): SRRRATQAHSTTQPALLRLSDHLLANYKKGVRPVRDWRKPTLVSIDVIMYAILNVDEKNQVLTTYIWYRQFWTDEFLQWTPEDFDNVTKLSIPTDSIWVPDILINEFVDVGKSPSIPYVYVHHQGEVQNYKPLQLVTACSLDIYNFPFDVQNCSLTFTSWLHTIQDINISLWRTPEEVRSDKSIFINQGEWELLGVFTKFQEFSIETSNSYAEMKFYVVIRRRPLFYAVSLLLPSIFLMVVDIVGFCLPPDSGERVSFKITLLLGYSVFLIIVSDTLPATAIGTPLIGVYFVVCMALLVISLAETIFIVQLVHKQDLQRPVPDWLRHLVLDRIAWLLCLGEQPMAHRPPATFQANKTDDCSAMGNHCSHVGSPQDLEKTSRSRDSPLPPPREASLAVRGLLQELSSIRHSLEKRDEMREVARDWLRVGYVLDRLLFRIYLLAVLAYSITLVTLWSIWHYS
Procedure: A number of compounds in accordance with the present invention were tested for their 5-HT3 and D2 binding affinities in accord with the following procedures.
Male Sprague-Dawley rats (175-220 g) were sacrificed by decapitation and their brains removed rapidly. The entorhinal cortex was used for the 5-HT3 (5-hydroxytryptamine) binding assay and the remainder of the brain, minus the brain stem and cerebellum, was used for the D2 (dopamine) binding assay. The entorhinal cortex was harvested and prepared on the day of the assay.
The entorhinal cortex was homogenized in 20 volumes of cold 50 mM HEPES buffer, pH 7.4, while the remaining brain tissue was homogenized in 20 volumes of cold 50 mM Tris, pH 7.4. The homogenates were centrifuged at 4800×g for 15 minutes at 5° C. and the supernatants decanted. Pellets were resuspended in the original volume of HEPES or Tris. Homogenates were centrifuged and the supernatants decanted. Pellets were resuspended in the same volume of HEPES or Tris and incubated at 37° C. for 45 minutes to remove endogenous neurotransmitters. Homogenates were centrifuged and the supernatants were decanted. Pellets for D2 assays were stored at -50° C. until the day of the assay. The pellets for the 5-HT3 assay (entorhinal cortex) were resuspended in the appropriate amount of HEPES buffer and used promptly. Modifications of published assays for [^3 H]GR65630 (Kilpatrick et al., Nature: 330, 746-748 (1987)) and [^3 H]raclopride (Dewar et al., J. Pharmacol. Exp. Ther.: 250, 696-706 (1989) and Lidow et al., Proc. Natl. Acad. Sci. USA: 86, 6412-6416 (1989)) were used for the 5-HT3 and D2 binding assays, respectively.
Briefly, 0.25 ml of homogenate was incubated with either 0.2 nM of [^3 H]GR65630 or 1.0 nM of [^3 H]raclopride in a final volume of 0.5 ml. D2 binding also requires sodium chloride and potassium chloride (120 mM and 5 mM, final concentration, respectively). In the 5-HT3 assay, non-specific binding was defined in the presence of 100 uM quipazine. In the D2 assay, non-specific binding was defined in the presence of 100 uM of (+/-) sulpiride. Both assays were incubated at room temperature; [^3 H]GR65630 for 40 minutes and [^3 H]raclopride for 60 minutes. Test compounds (0.1 ml) were added to incubates where appropriate. Bound ligand was separated from free ligand by filtration and quantified using liquid scintillation spectrophotometry. IC50 values were calculate for all test compounds.

Ferret = assay: Cisplatin Ferret Assay--Antiemetic Screening; type: in vivo, Male ferrets; conditions: for inhibition in vivo at 0.1 mg/kg / ED50: Mustela putorius, iv, 4 h; for inhibition in vivo at 0.1 mg/kg: read-out: Ferret Cisplatin Test % Prot, 0.1 mg/Kg; for ED50: read-out: Ferret Cisplatin Test ED50
Procedure: Male ferrets (castrated, descented, 1-2 kg) were purchased from Triple F Farms, Syre, Pa. Ferrets were housed four in a cage with a 12 hour light cycle and were fed ad libitum with Ralston Purina Cat Chow. Each ferret was used unfasted for the assay after a minimum of a 24 hour acclimation time in animal facility.
Ferret Preparation. Each ferret was anesthetized with 5% isoflurane-O2in a 20 gallon aquarium for 2 to 5 minutes. After removal of the anesthetic gas, the animals were removed and weighed. Injections were made into the dorsal front paw vein using a tourniquet and a 1 ml tuberculin syringe with a 25 g needle while the animal was maintained under anesthesia using a small nose cone delivering 5% isoflurane-O2. Cisplatin was injected using a 3 ml or 5 ml syringe in the opposite paw from the study compound or saline. Recovery time from anaesthesia was 5 to 8 minutes.
Drug Preparation. Cisplatin bulk powder was weighed and dissolved in normal saline at 75° C. to provide a 5 mg/ml solution (90 mg was placed in a scintillation vial and qs with 18 ml saline). The solution was stirred and maintained at 40° C. until ready for use. The study drug was weighed and dissolved in normal saline at room temperature to provide a 1 mg/ml solution (10 mg was placed in a scintillation vial and qs with 10 ml saline). Suspensions were heated to 40° C. to bring the study compound into solution. Compounds not soluble under these conditions were not assayed.
Assay. Cisplatin was injected i.v. at 10 mg/kg into twelve anesthetized ferrets daily at time zero. Normal saline (0.5 ml) or the study compound (0.1 or 1.0 mg/kg) was injected 30 minutes later in groups of three anesthetized ferrets. Order of treatment and treatment dose was selected at random, with the remaining treatment dose assayed in the next experiment.
Experimental Observations and Data Collection. Ferrets were viewed individually. The time and number of emetic episodes were recorded for four hours. Zero time was equivalent to the time of cisplatin injection. […] Retches were recorded but not counted. The total number of episodes for each of the four groups of three ferrets (+/-S.E.) was averaged and the effect of treatment (% protection) was calculated as the percent reduction of emetic episodes compared to controls. [formula]
Percent protection values were determined from experimental controls. Experimental controls were those obtained from the day of the experiment. Onset times of the first episode were averaged and recorded for each group. Prodromal signs (lip licking, slit eyes, head shaking, salivation, scratching, clawing, walking backward, sedation, urination, and defecation) were also averaged and recorded.

[1] = 0.2 nM [3H]GR65630, rat entorhinal cortex, 40 minutes, room temperature, read-out: 5-HT3 IC50
[2] = 0.1 mg/kg i.v., 30 minutes after cisplatin 10 mg/kg i.v., percent reduction of emetic episodes vs controls, four hours
[3] = i.v., 30 minutes after cisplatin 10 mg/kg i.v., emetic episodes over four hours

Row | SMILES | IC50 (5-HT3; [1]) [nM] | inhibition in vivo at 0.1 mg/kg (Ferret; [2]) [%] | ED50 (Ferret; [3]) [mg/kg] | IC50 (5-HT3) [nM] | inhibition in vivo at 0.1 mg/kg (Ferret) [%] | ED50 (Ferret) [mg/kg] | Ferret Cisplatin Test % Prot, 0.1 mg/Kg (Ferret; [2]) [%]
1 | CN1Cc2nc[nH]c2C[C@H]1C(=O)Nc1c(F)cccc1F [Compd 34] | 612 | 59 | 0.15 | – | – | – | –
2 | CCN(CC)CCNC(=O)c1cc(Cl)c(N)cc1OC [Metaclopramide, reference compound] | – | 17 | 4.08 | 514 | – | – | –
3 | CN1Cc2nc[nH]c2C[C@H]1C(=O)c1cc2ccccc2s1 [Compd 32, 6-(2-benzo[b]thiophenylcarbonyl)-5-methyl-4,5,6,7-tetrahydroimidazo[4,5-c]pyridine] | 234 | – | – | – | 41 | 0.11 | –
4 | CN1Cc2nc[nH]c2C[C@H]1C(=O)Nc1ccccc1O [Compd 15, (S)-6-(2-hydroxyphenylaminocarbonyl)-5-methyl-4,5,6,7-tetrahydroimidazo[4,5-c]pyridine] | 62.4 | 99 | 0.007 | – | – | – | –
5 | CN1Cc2nc[nH]c2C[C@H]1C(=O)Nc1ccc(F)c(F)c1F [Compd 35] | 160 | 20 | 0.19 | – | – | – | –
6 | COc1ccc(OC)c(NC(=O)[C@@H]2Cc3nc[nH]c3CN2C)c1 [Compd 30, (S)-6-(2,5-dimethoxyphenylaminocarbonyl)-5-methyl-4,5,6,7-tetrahydoimidazo[4,5-c]pyridine dihydrochloride] | 69.7 | 5 | – | – | – | – | –
7 | COc1ccccc1C(=O)[C@@H]1Cc2[nH]cnc2CN1C [Compd 43] | – | – | – | 2380 | 41 | – | –
8 | CN1Cc2nc[nH]c2C[C@H]1C(=O)c1cccs1 [Compd 28] | 648 | – | – | – | 0 | – | –
9 | CN1Cc2[nH]cnc2C[C@@H]1C(=O)Nc1nccs1 [Compd 12] | 273 | – | – | – | – | – | 40
10 | CN1Cc2nc[nH]c2C[C@@H]1C(=O)c1ccccc1 [Compd 19, (R)-6-benzoyl-5-methyl-4,5,6,7-tetrahydroimidazo[4,5-c]pyridine] | – | – | – | 58.5 | 8 | – | –
11 | CN1Cc2nc[nH]c2C[C@H]1C(=O)Nc1ccccc1F [Compd 29] | 335 | 88 | 0.024 | – | – | – | –
12 | CN1[C@H](C(=O)Nc2ccccc2O)Cc2[nH]cnc2C1(C)C [Compd 24] | 47.2 | 48 | 0.025 | – | – | – | –
13 | CN1Cc2nc[nH]c2C[C@H]1C(=O)Nc1ccccc1N [Compd 42] | 3490 | 39 | 0.23 | – | – | – | –
14 | CC(=O)c1ccccc1NC(=O)[C@@H]1Cc2[nH]cnc2C(C)(C)N1 [Compd 48] | 158 | 100 | 0.0098 | – | – | – | –
15 | Cc1nccn1CC1CCc2c(c3ccccc3n2C)C1=O (centres unmarked) [Ondansetron, reference compound] | – | 77 | 0.041 | – | – | – | –
16 | CN1Cc2nc[nH]c2C[C@@H]1C(=O)Nc1nc2ccccc2s1 [Compd 13, (R)-6-(2-benzothiazolylaminocarbonyl)-5-methyl-4,5,6,7-tetrahydroimidazo[4,5-c]pyridine] | 71.5 | 76 | 0.074 | – | – | – | –
17 | CN1Cc2nc[nH]c2C[C@@H]1C(=O)Nc1ccccc1 [Compd 9] | 57.2 | 26 | 0.33 | – | – | – | –
18 | COc1ccc2oc(C(=O)[C@@H]3Cc4[nH]cnc4CN3C)cc2c1 [Compd 41] | 12900 | – | – | – | 9 | – | –
19 | CN1Cc2nc[nH]c2C[C@H]1C(=O)Nc1cccc(F)c1F [Compd 31] | 644 | 91 | 0.068 | – | – | – | –
20 | COc1ccccc1NC(=O)[C@@H]1Cc2[nH]cnc2CN1C(C)=O [Compd 47, (S)-5-acetyl-6-(2-methoxyphenylaminocarbonyl)-4,5,6,7-tetrahydroimidazo[4,5-c]pyridine] | – | 81 | 0.044 | – | – | – | –
21 | CN1C2CCCC1CC(NC(=O)c1nn(C)c3ccccc13)C2 (centres unmarked) [Granisetron, reference compound] | – | 71 | 0.03 | – | – | – | –

Further molecules by falling IC50 (5-HT3; [1]), results first:

Row | IC50 (5-HT3; [1]) [nM] | SMILES | inhibition in vivo at 0.1 mg/kg (Ferret; [2]) [%] | ED50 (Ferret; [3]) [mg/kg] | IC50 (5-HT3) [nM] | inhibition in vivo at 0.1 mg/kg (Ferret) [%] | ED50 (Ferret) [mg/kg] | Ferret Cisplatin Test % Prot, 0.1 mg/Kg (Ferret; [2]) [%]
22 | 45.9 | CN1Cc2nc[nH]c2C[C@H]1C(=O)Nc1cc(O)ccc1O [Compd 40, (S)-6-(2,5-dihydroxyphenylaminocarbonyl)-5-methyl-4,5,6,7-tetrahydroimidazo[4,5-c]pyridine dihydrobromide] | 0 | – | – | – | – | –
23 | 29 | COC(=O)c1ccccc1NC(=O)[C@@H]1Cc2[nH]cnc2CN1C [Compd 16] | 42 | 0.01 | – | – | – | –
24 | 26.7 | CN1Cc2nc[nH]c2C[C@H]1C(=O)Nc1ccccc1Cl [Compd 37] | 42 | 0.065 | – | – | – | –
25 | 21.7 | COc1ccccc1NC(=O)[C@@H]1Cc2nc[nH]c2C(C)(C)N1 [Compd 20] | – | 0.008 | – | – | – | 72
26 | 17.6 | CCN1Cc2nc[nH]c2C[C@H]1C(=O)Nc1ccccc1O [Compd 18] | 46 | 0.16 | – | – | – | –
27 | 10.9 | CN1Cc2nc[nH]c2C[C@@H]1C(=O)Nc1ccccc1O [Compd 1] | 73 | 0.063 | – | – | – | –
28 | 10 | COc1ccc(Cl)cc1NC(=O)[C@H]1Cc2[nH]cnc2CN1C [Compd 2] | 31 | 0.4 | – | – | – | –
29 | 9.52 | CN1Cc2nc[nH]c2C[C@H]1C(=O)Nc1ccccc1Oc1cccc(C(F)(F)F)c1 [Compd 44] | 1 | 0.26 | – | – | – | –
30 | 8.55 | CC1(C)N[C@H](C(=O)Nc2ccccc2Oc2ccccc2)Cc2[nH]cnc21 [Compd 49, (S)-6-(2-phenoxy-phenylaminocarbonyl)-4,4-dimethyl-4,5,6,7-tetrahydroimidazo[4,5-c]pyridine] | 76 | 0.022 | – | – | – | –
31 | 8.53 | COc1ccccc1NC(=O)[C@@H]1Cc2[nH]cnc2CN1 [Compd 14, (S)-6-(2-methoxyphenyl)aminocarbonyl-4,5,6,7-tetrahydroimidazo[4,5-c]pyridine] | 48 | 0.062 | – | – | – | –
32 | 7.09 | CN1Cc2nc[nH]c2C[C@H]1C(=O)Nc1ccccc1Oc1cccc(F)c1 [Compd 45] | 67 | 0.042 | – | – | – | –
33 | 6.92 | CN1Cc2nc[nH]c2C[C@H]1C(=O)Nc1ccccc1Oc1ccccc1.Cl.Cl [Compd 27, (S)-5-methyl-6-(2-phenoxyphenylaminocarbonyl)-4,5,6,7-tetrahydroimidazo[4,5-c]pyridine dihydrochloride] | 72 | 0.031 | – | – | – | –
34 | 4.86 | COc1ccccc1NC(=O)[C@@H]1Cc2[nH]cnc2CN1C [Compd 6] | 77 | 0.023 | – | – | – | –
35 | 4.26 | CC(=O)c1ccccc1NC(=O)[C@H]1Cc2[nH]cnc2CN1C [Compd 5] | 22 | 0.123 | – | – | – | –
36 | 4.18 | CC(=O)c1ccccc1NC(=O)[C@@H]1Cc2[nH]cnc2CN1C [Compd 39, (S)-6-(2-acetylphenylaminocarbonyl)-5-methyl-4,5,6,7-tetrahydroimidazo[4,5-c]pyridine] | 65 | 0.045 | – | – | – | –
37 | 1.98 | CN1Cc2nc[nH]c2C[C@@H]1C(=O)Nc1cccc2nsnc12 [Compd 21] | 24 | 0.39 | – | – | – | –
